Reference: PubChem BioAssay (NCI)
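These data come from cells grown in 96-well plates and exposed to compound for 48 hours at five concentrations. Definition used: TGI = concentration required for complete inhibition of growth.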

Columns and labels:
Assay in all cases: NCI tumour cell line growth inhibition, 48 h
[1] = system: CCRF-CEM leukemia
[2] = system: NCI-H460 lung
[3] = system: MALME-3M melanoma
[4] = system: OVCAR-4 ovarian
[5] = system: HOP-62 NSCLC
[6] = system: SW-620 colon
[7] = system: RXF 393 renal
[8] = system: NCI-H522 lung
[9] = system: K-562 leukemia

Row | Structure (SMILES) | TGI [1] | TGI [2] | TGI [3] | TGI [4] | TGI [5] | TGI [6] | TGI [7] | TGI [8] | TGI [9]
1 | NNC(=O)CC(=O)Nc1ccccc1F | > 100 µM | > 100 µM | > 100 µM | > 100 µM | > 100 µM | > 100 µM | > 100 µM | > 100 µM | > 100 µM
2 | Cn1c(=O)c(C(c2ccccc2)c2c(O)c3ccccc3n(C)c2=O)c(O)c2ccccc21 |  | > 100 µM | > 100 µM | > 100 µM |  | > 100 µM | > 100 µM | > 100 µM | > 100 µM
3 | CC1SC2=NC3=C(c4ccccc4C3=O)C(c3ccc(Br)cc3)N2C1=O (stereo unspecified) | > 100 µM | > 100 µM | > 100 µM | > 100 µM | > 100 µM | > 100 µM |  | 48.3 µM | > 100 µM
4 | CC1=C(C(=O)Nc2ccccc2C)C(c2ccc(N(C)C)cc2)C(C(=O)Nc2ccccc2C)=C(C)N1 | > 100 µM | > 100 µM | > 100 µM |  | > 100 µM | > 100 µM | > 100 µM | > 100 µM | > 100 µM
5 | COC1=NN2C(OC)(c3ccccc3)c3c(-c4ccccc4)sc(-c4ccccc4)c3C2(c2ccccc2)S1 (stereo unspecified) | > 100 µM | > 100 µM | > 100 µM |  | > 10 µM | > 100 µM |  | > 100 µM | > 100 µM
6 | COc1ccc(-c2cc(-c3ccccc3)c(C#N)c(=O)[nH]2)cc1 | > 100 µM | > 100 µM | > 100 µM | > 100 µM | > 100 µM | > 100 µM | > 100 µM | > 100 µM | > 100 µM
7 | COc1cc(C)c(C(=O)/C=C/c2cc(OC)c(O)c(OC)c2)cc1O | 62.7 µM | > 100 µM | 36.9 µM | 49.3 µM | 69.3 µM | 70.8 µM |  | 39.6 µM | > 100 µM
8 | CC(C)O/C=C1\C(=O)C2(SCCS2)[C@H]2CCCC[C@@H]12 | 73.2 µM | > 100 µM | > 100 µM | > 100 µM | > 100 µM | > 100 µM | 57.8 µM | 53.9 µM | > 100 µM
9 | O=C1Cc2ccccc2N1/N=C\c1ccc(O)cc1 | > 100 µM | > 100 µM | > 100 µM | > 100 µM | > 100 µM | > 100 µM |  |  | > 100 µM
10 | COc1cc2ccc(CC#N)cc2cc1OC | > 100 µM | > 100 µM | > 100 µM | > 100 µM | > 100 µM | > 100 µM | > 100 µM |  | > 100 µM
11 | O=C(N/C(=C\c1ccc([N+](=O)[O-])cc1)c1nc2[nH]c(=S)[nH]c(=O)c2[nH]1)c1ccccc1 | > 100 µM |  | > 100 µM | > 100 µM |  | > 100 µM | > 100 µM | > 100 µM | > 100 µM
12 | O=C1C2Cc3ccccc3CN2C(=O)N1CN1CCN(CN2C(=O)C3Cc4ccccc4CN3C2=O)CC1 (stereo unspecified) | > 100 µM | > 100 µM | > 100 µM |  | > 100 µM | > 100 µM | > 100 µM | > 100 µM | > 100 µM
13 | CCCNC(=O)c1cc2ccccc2cc1C(=O)OC | > 100 µM | > 100 µM | > 100 µM | > 100 µM | > 100 µM | > 100 µM |  | > 100 µM | > 100 µM
14 | N/C(=N\OC(=O)NC(Cl)=C(Cl)Cl)c1cc(C(F)(F)F)cc(C(F)(F)F)c1 | 32.2 µM | 36.8 µM | 48.6 µM |  | 34.2 µM | 40.3 µM |  |  | 
15 | O=C1c2c(c3c4ccccc4n4c3c3c2c2ccccc2n3C/C=C\C4)C(=O)N1Cc1ccccc1 | > 100 µM | > 100 µM | > 100 µM |  | > 100 µM | > 100 µM | > 100 µM | > 100 µM | > 100 µM
16 | COc1cc2c(c3oc(-c4ccc5c(c4)OCO5)c(O)c(=O)c13)CCC(C)(C)O2 | > 100 µM |  |  |  |  | > 100 µM |  |  | > 100 µM
17 | CCOC(=O)c1c(-c2[nH]c(C(=O)OCc3ccccc3)c(C)c2C(=O)OCC)[nH]c(C(=O)OCc2ccccc2)c1C |  | > 100 µM | > 100 µM |  | > 100 µM | > 100 µM | 86.2 µM | > 100 µM | 
18 | COc1ccc(CNc2nc3ccccc3nc2-c2cccs2)cc1OC | > 100 µM | > 100 µM | > 100 µM |  | > 100 µM | > 100 µM | > 100 µM |  | > 100 µM
19 | O=C1c2cnccc2Cc2cccc3c2N1c1ccccc1S3 | 85 µM |  | 62.4 µM | 68.4 µM | 57.2 µM | 97.9 µM | 65.3 µM | 32.2 µM | > 100 µM
20 | OCCc1cnco1 | > 100 µM | > 100 µM |  | > 100 µM | > 100 µM | > 100 µM | > 100 µM | > 100 µM | > 100 µM
21 | CSc1nc(Cl)c(Br)c(Nc2c[nH]c(=O)[nH]c2=O)n1 | 49 µM |  | 43.9 µM | 37.9 µM | 53.5 µM | > 100 µM | 45.4 µM | 3.88 µM | > 100 µM
